Measured values reported in patent US4547507A, “Benzothiopyranopyridinones” (Roussel Uclaf, priority 1982, dated 1985).
Where a name gives a salt, the structure may show the parent alone.

Legend:
rat cortical α2 receptor = assay: Test C: [3H]Dihydroergocryptine displacement from rat cortical α2 receptor binding sites; conditions: for IC50: rat cortical membranes, [3H]dihydroergocryptine 0.45 nM, 25° C., 45 minutes in the dark, approximately 80% of binding is α2
Description: Test C--[^3 H]Dihydroergocryptine displacement from rat cortical α2 *receptor binding sites
(a) Radioligand--[9,10(n)-^3 H]9,10-Dihydroergocryptine (Amersham International, TRK 555, 17.5 Ci/mmole) was used as a 1 μCi/1 μl solution and this stock solution was diluted 1/6250 in assay buffer and 0.1 ml volumes of this were added to 2 ml binding assays. =0.45 nM and =0.016 μCi/binding assay
*In cortical membranes, [^3 H]dihydroergocryptine binds to both α1 and α2 receptor binding sites under the conditions of assay described here, approximately 80% of the binding is associated with α2 receptors.
(§1) (b) Membrane preparation--As for Test B
(c) Non-specific binding--As for Test B
(d) Displacing compounds--As for Test B
(e) Assay protocol--As for Test B with the exception that the binding assays were incubated at 25° C. for 45 minutes in the dark.

[1] = target: rat striatal dopamine receptor (Rattus norvegicus, UniProt P61169); assay: Test A: [3H]Spiroperidol displacement from rat striatal dopamine receptor binding sites; conditions: rat striatal membranes, [3H]spiroperidol 0.19 nM, 37° C., 10 minutes, pH 7.6; read-out: Test A receptor DA IC50
Sequence of rat striatal dopamine receptor (P61169 whole entry): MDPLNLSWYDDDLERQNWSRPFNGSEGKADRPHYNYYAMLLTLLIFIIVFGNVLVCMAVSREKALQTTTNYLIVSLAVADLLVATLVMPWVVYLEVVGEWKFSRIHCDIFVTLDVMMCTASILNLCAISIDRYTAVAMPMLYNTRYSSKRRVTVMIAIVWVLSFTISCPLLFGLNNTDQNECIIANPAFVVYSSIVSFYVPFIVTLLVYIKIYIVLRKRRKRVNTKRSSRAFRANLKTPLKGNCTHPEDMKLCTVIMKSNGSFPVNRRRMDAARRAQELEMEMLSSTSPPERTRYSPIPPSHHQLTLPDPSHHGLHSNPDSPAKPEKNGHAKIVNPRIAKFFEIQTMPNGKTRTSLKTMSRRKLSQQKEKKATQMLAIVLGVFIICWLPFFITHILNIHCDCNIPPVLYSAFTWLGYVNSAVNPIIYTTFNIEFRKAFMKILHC
Description: Test A--[^3 H Spiroperidol displacement from rat striatal dopamine receptor binding sites
(a) Radioligand--[phenyl-4-(n)-^3 H]Spiroperido (Amersham International, TRK 570, 21 Ci/mmol was used as a 1 μCi/1 μl solution in ethanol and this solution was diluted to 250 μCi in 1 ml of ethanol to produce a stock solution. This stock solution was diluted 3.2/10,000 in assay buffer and 0.1 ml volumes of this were added to 2 ml binding assays =0.19 nM [^3 H]spiroperidol and =[…]
(b) Assay buffer--The assay buffer was a modified 50 mM Tris HCl buffer with a pH of 7.6 containing the following additions: NaCl-120 mM, KCl-5 mM, MgCl2 -1 mM, CaCl2 -2 mM, Pargyline-10 μM and 1-Ascorbic Acid-0.1%
(c) Membrane preparation--The striata were dissected from male CFHB rats and homogenized in 20 volumes of ice cold 0.32M sucrose with a Teflon/glass homogenizer and the homogenate was centrifuged at 1000 g for 10 minutes. The resulting supernatant was recentrifuged at 30,000 g for 30 minutes and the supernatant was discarded and the pellet was resuspended by homogenization in 30 volumes of ice cold assay buffer.
(d) Non-specific binding--Non-specific binding was accounted for by the inclusion of 1 μM(+)butaclamol in blank binding assays which required a stock solution of 20 μM in distilled water.
(e) Displacing compounds--Solutions were prepared at 20x final assay concentration in distilled water.
(f) Binding assay protocol--1.3 ml assay buffer, 0.5 ml membrane suspension, 0.1 ml distilled H2 O or drug solution and 0.1 ml [^3 H]spiroperidol dilution Binding assays were made up in ice with the [^3 H]spiroperidol being added last and incubated at 37° C. for 10 minutes. The bound ligand was separated by filtration through Whatman GF/C filters under vacuum followed by 2×10 ml rinses of ice cold assay buffer. The filters were dried at 80° C. and counted in 5 ml volumes of ECONOFLUOR (NEN) scintillation cocktail. All binding assays, controls, blanks and each of four displacer concentration were run in triplicate. IC50 values (Test A) were obtained graphically from log dose versus percent inhibition of specific binding plots.

[2] = target: rat cortical muscarinic receptor; assay: Test D: [3H]Quinuclidinyl benzylate displacement from rat cortical muscarinic receptor binding sites; conditions: rat cortical membranes, [3H]quinuclidinyl benzylate 0.31 nM, 25° C., 60 minutes; read-out: Test D MUSC IC50
Description: Test D--[^3 H]Quinuclidinyl benzylate displacement from rat cortical muscarinic receptor binding sites
(a) Radioligand--DL-[3-^3 H]Quinuclidinyl benzylate (Amersham International, TRK 506, 12 Ci/mmol) was used as a 1 μCi/1 μl solution and this stock solution was diluted 1/13333 in assay buffer and 0.1 ml volumes of this were added to 2 ml binding assay =0.31 nM and =0.0075 μCi/binding assay
as §1
(c) Non-specific binding--Non-specific binding was accounted for by the inclusion of 100 μM oxotremorine sesquifumarate in blank binding assays and this required a stock solution of 2 mM in distilled H2 O.
(d) Displacement compounds--As for Test B
(e) Assay protocol--As for Test B with the exception that the binding assays were incubated at 25° C. for 60 minutes.

rat cortical α1 receptor = assay: Test B: [3H]Prazosin displacement from rat cortical α1 receptor binding sites; conditions: rat cerebral cortex membranes, [3H]prazosin 0.1 nM, 25° C., 30 minutes, pH 7.5
Description: Test B--[^3 H]Pyrazosin displacement from rat cortical α1 receptor binding sites (a) Radioligand--[^3 H]Prazosin (Amersham International, TRK 647, 28 Ci/mmole) was used as a 1 μCi/1 μl solution and this stock solution was diluted 1/18,000 in assay buffer and 0.1 ml volumes of this were added to 2 ml binding assay. =0.1 nM [^3 H]Prazosin and =0.0056 μCi/binding assay (b) Membrane preparation--The cerebral cortices were dissected from male CFHB rats and homogenized in 20 volumes of ice cold 0.32M sucrose using a Teflon/glass homogenizer and the homogenate was centrifuged at 1000 g for 10 minutes. The resulting pellet was discarded and the supernatant was recentrifuged at 30,000 g for 30 minutes. The supernatant was discarded and the pellet was resuspended by homogenization in 50 volumes of 50 mM pH 7.5 Tris HCl buffer (assay buffer). (c) Non-specific binding--Non-specific binding was accounted for by the inclusion of 100 μM 1-noradrenaline in blank binding assays which required a stock solution of 2 mM 1-noradrenaline made up fresh daily in 0.1% 1-ascorbic acid. (d) Displacing compounds--Solutions were prepared at 20x final assay concentration in distilled water. (e) Binding assay protocol--1.3 ml assay buffer, 0.5 ml membrane suspension, 0.1 ml distilled H2 O or drug solution and 0.1 ml [^3 H]pyrazosin dilution Binding assays were made up in ice with the [^3 H]pyrazosin being added last and incubated at 25° C. for 30 minutes. The bound ligand was separated by filtration through Whatman GF/C glass fibre filters under vacuum followed by 2×10 ml rinses of ice cold assay buffer. The filters were dried at 80° C. and counted in 5 ml volumes of ECONOFLUOR (NEN) scintillation cocktail. All binding assays, controls, blanks and each of four displacer concentrations were run in triplicate. IC50 values (Test B) were obtained graphically from log dose versus percent inhibition of specific binding plots.

| SMILES | IC50 (rat cortical α2 receptor) [µM] | IC50 [1] [µM] | IC50 [2] [µM] | IC50 (rat cortical α1 receptor) [µM] | share of the radioligand binding associated with α2 receptors (rat cortical α2 receptor; cortical membranes, under the conditions of assay) |
| --- | --- | --- | --- | --- | --- |
| O=c1c2c(sc3ccccc13)CCNC2 [Example 1, 1,2,3,4-tetrahydro-10H-(1)-benzothiopyrano[3,2-c]pyridin-10-one hydrochloride] | 0.6 | 6.5 | 32 | 6.6 | – |
| Cc1ccc2sc3c(c(=O)c2c1)CNCC3 [Example 2, 1,2,3,4-tetrahydro-8-methyl-10H-(1)benzothiopyrano[3,2-c]pyridin-10-one hydrochloride] | 3.3 | > 10 | 45.7 | > 10 | – |
| COc1ccc2c(=O)c3c(sc2c1)CCNC3 [Example 3, 1,2,3,4-tetrahydro-7-methoxy-10H-(1)-benzothiopyrano[3,2-c]pyridin-10-one hydrochloride] | 4.3 | > 10 | 26.9 | > 10 | – |
| COc1ccc2sc3c(c(=O)c2c1)CNCC3 [Example 4, 1,2,3,4-tetrahydro-8-methoxy-10H-(1)-benzothiopyrano[3,2-c]pyridin-10-one hydrochloride] | 2.9 | > 10 | 57.5 | 7.8 | – |
| O=c1c2c(sc3ccc4ccccc4c13)CCNC2 [Example 5, 1,2,3,4-tetrahydro-12H-naphtho[1',2':5,6]thiopyrano[3,2-c]pyridin-12-one hydrochloride] | 1.6 | 5.2 | 19.5 | 1.7 | – |
| O=c1c2c(sc3ccccc13)CCN(Cc1ccccc1)C2 [Example 6, 2-benzyl-1,2,3,4-tetrahydro-10H-(1)-benzothiopyrano[3,2-c]pyridin-10-one hydrochloride] | 0.5 | 0.68 | > 100 | 4 | – |
| O=c1c2c(sc3ccc(Cl)cc13)CCNC2 [Example 7, 8-chloro-1,2,3,4-tetrahydro-10H-(1)-benzothiopyrano[3,2-c]pyridin-10-one hydrochloride] | 2.2 | 5.1 | 85.1 | > 10 | – |
| O=c1c2c(sc3c1ccc1ccccc13)CCNC2 [Example 8, 1,2,3,4-tetrahydro-12H-naphtho[1',2':6,5]thiopyrano[3,2-c]pyridin-12-one hydrochloride] | 1 | 0.68 | 8.1 | 0.74 | – |
| CCCN1CCc2sc3ccccc3c(=O)c2C1 [Example 11, 1,2,3,4-tetrahydro-2-n-propyl-10H-(1)-benzothiopyrano[3,2-c]pyridin-10-one hydrochloride] | 0.15 | 0.49 | > 100 | 1.3 | – |
| CN1CCc2sc3ccccc3c(=O)c2C1 [Example 12, 1,2,3,4-tetrahydro-2-methyl-10H-(1)-benzothiopyrano[3,2-c]pyridin-10-one hydrochloride] | 0.93 | 2.8 | 32.4 | 3.1 | – |
| CCN1CCc2sc3ccccc3c(=O)c2C1 [Example 13, 2-ethyl-1,2,3,4-tetrahydro-10H-(1)-benzothiopyrano[3,2-c]pyridin-10-one hydrochloride] | 0.29 | 1 | 44.7 | 1.5 | – |
| CCCCN1CCc2sc3ccccc3c(=O)c2C1 [Example 14, 2-n-butyl-1,2,3,4-tetrahydro-10H-(1)-benzothiopyrano[3,2-c]pyridin-10-one hydrochloride] | 0.11 | 0.08 | 75.8 | 0.89 | – |
| CC(C)CCN1CCc2sc3ccccc3c(=O)c2C1 [Example 15, 1,2,3,4-tetrahydro-2-isopentyl-10H-(1)-benzothiopyrano[3,2-c]pyridin-10-onehydrochloride] | 0.17 | 0.06 | 87.1 | 0.68 | – |
| O=C(CCCN1CCc2sc3ccccc3c(=O)c2C1)c1ccc(F)cc1 [Example 16, 2-(4-p-fluorophenyl-4-oxobutyl)-1,2,3,4-tetrahydro-10H-(1)-benzothiopyrano-[3,2-c]pyridin-10-one hydrochloride] | 0.02 | 0.02 | > 100 | 0.02 | – |
| CCCCCN1CCc2sc3ccccc3c(=O)c2C1 [Example 17, 1,2,3,4-tetrahydro-2-n-pentyl-10H-(1)-benzothiopyrano[3,2-c]pyridin-10-one hydrochloride] | 0.07 | 0.07 | 39.8 | 0.31 | – |
| CCCCCCN1CCc2sc3ccccc3c(=O)c2C1 [Example 18, 2-n-hexyl-1,2,3,4-tetrahydro-10H-(1)-benzothiopyrano[3,2-c]pyridin-10-one hydrochloride] | 0.08 | 0.13 | 15.8 | 0.4 | – |
| CC(C)CN1CCc2sc3ccccc3c(=O)c2C1 [Example 19, 1,2,3,4-tetrahydro-2-isobutyl-10H-(1)-benzothiopyrano[3,2-c]pyridin-10-one hydrochloride] | 0.15 | 0.1 | > 100 | 4.6 | – |
| O=c1c2c(sc3ccccc13)CCN(CC1CCCCC1)C2 [Example 20, 2-cyclohexylmethyl-1,2,3,4-tetrahydro-10H-(1)-benzothiopyrano[3,2-c]pyridin-10-one hydrochloride] | 0.23 | 0.01 | > 100 | 2.7 | – |
| [3H]C1C(C(=O)NC2(C(C)C)OC3(O)C4CCCN4C(=O)C(CC(C)C)N3C2=O)CN(C)C2Cc3c[nH]c4cccc(c34)C12[3H] (stereo not shown) [[^3 H]dihydroergocryptine, [9,10(n)-^3 H]9,10-Dihydroergocryptine, reference compound] | – | – | – | – | approximately 80% |
